Experimental data taken from US5194645A, “Trans-Pt (IV) compounds” (Johnson Matthey Public Limited Company, priority 1991, dated 1993).

Tests used:
A2780 ® = experiment: In vitro cytotoxicity (SRB), A2780 ®; format: cell-based, human; details: A2780 ® (cisplatin resistant), ovarian cancer, 48 to 96 hours
Method: (§1) Additional in vitro biological testing was conducted using cell lines derived from human carcinomas and maintained at the Institute of Cancer Research, Sutton, England (see C A Hills & colleagues, Br J Cancer 59, 527-34 (1989)). Monolayer cells were trypsinized and seeded in 96-well microtiter plates at a density of 1×10^4 cells/well in 200 μl of growth medium. Cells were incubated overnight and test compounds were added to triplicate wells at various concentrations for a total of 48 to 96 hours. For toxicity analysis after drug exposure, the cells were fixed with trichloroacetic acid and stained for cellular protein content by incubation for 30 minutes with 0.4% (wt/vol) sulforodamine B (SRB) dissolved in 1% acetic acid. The unbound dye was removed by 1% acetic acid washes, and the bound dye was extracted with 10 mM Tris buffer. The amount of dye in solution was quantified by absorbance at 564 nm.
(§2) In the Tables A and B below, all the cells are ovarian cancer cells with the exception of GCT27^R /GCT27 which are testicular. Table A gives IC50 values in μM; Table B gives Resistance Factors as a ratio of IC50 for a cell line bred to be resistant to cisplatin against IC50 for the nonresistant cell line.

CHI ®/CHI = experiment: Resistance factor CHI ®/CHI; format: cell-based, human; details: ratio of IC50 resistant to nonresistant line, ovarian
Method: as §1, §2

41M ® = experiment: In vitro cytotoxicity (SRB), 41M ®; format: cell-based, human; details: 41M ® (cisplatin resistant), ovarian cancer, 48 to 96 hours
Method: as §1, §2

SKOV-3 = experiment: In vitro cytotoxicity (SRB), SKOV-3; format: cell-based, human; details: SKOV-3, ovarian cancer, 48 to 96 hours
Method: as §1, §2

A2780 ®/A2780 = experiment: Resistance factor A2780 ®/A2780; format: cell-based, human; details: ratio of IC50 resistant to nonresistant line, ovarian
Method: as §1, §2

CHI = experiment: In vitro cytotoxicity (SRB), CHI; format: cell-based, human; details: ovarian cancer, 48 to 96 hours
Method: as §1, §2

41M = experiment: In vitro cytotoxicity (SRB), 41M; format: cell-based, human; details: ovarian cancer, 48 to 96 hours
Method: as §1, §2

41M ®/41M = experiment: Resistance factor 41M ®/41M; format: cell-based, human; details: ratio of IC50 resistant to nonresistant line, ovarian
Method: as §1, §2

CHI ® = experiment: In vitro cytotoxicity (SRB), CHI ®; format: cell-based, human; details: CHI ® (cisplatin resistant), ovarian cancer, 48 to 96 hours
Method: as §1, §2

A2780 = experiment: In vitro cytotoxicity (SRB), A2780; format: cell-based, human; details: A2780, ovarian cancer, 48 to 96 hours
Method: as §1, §2

HX62 = experiment: In vitro cytotoxicity (SRB), HX62; format: cell-based, human; details: HX62, ovarian cancer, 48 to 96 hours
Method: as §1, §2

GCT27 ®/GCT27 = experiment: Resistance factor GCT27 ®/GCT27; format: cell-based, human; details: ratio of IC50 resistant to nonresistant line, testicular
Method: as §1, §2

PXN/94 = experiment: In vitro cytotoxicity (SRB), PXN/94; format: cell-based, human; details: PXN/94, ovarian cancer, 48 to 96 hours
Method: as §1, §2

Adj/PC6 = experiment: In vivo Adj/PC6 tumour test in mice (LD50, ED90, therapeutic index)
Method: The Adj/PC6 testing was carried out as described by P M Goddard et al presented in Sixth NCI-EORTC Symposium on New Drugs in Cancer Therapy 1989, which is a development of the basic method described by T A Connors et al, Chem Biol Interact 5, 415(1972). The in vivo L1210 tests were conducted according to the NCI protocol, Cancer Chemotherapy Reports, Part 3, vol 2, (Sept 1972) except that the animals used were DBA/2 mice and that dosing was carried out on days 1, 5 and 9. The animals were sacrificed when moribund. The compounds were administered parenterally (ip).
In the Adj/PC6 testing, LD50 and ED90 values in mg/kg body weight were determined in the conventional manner. The therapeutic index (TI) was calculated as the ratio of LD50 to ED90, and the results are shown below.
Additional tests were carried out in vivo using the compound of Example 2, against sensitive Adj/PC6 tumour cell lines, and against tumour cell lines resistant to various platinum anti-tumour agents, and a TI (Therapeutic Index) calculated, as described above.

Adj/PC6/tetraplatin res = experiment: In vivo Adj/PC6 tetraplatin-resistant tumour test in mice
Method: (§3) The animals were sacrificed when moribund. The compounds were administered parenterally (ip).

Adj/PC6/cisplatin res = experiment: In vivo Adj/PC6 cisplatin-resistant tumour test in mice; parameters: key to ED90: --: indicates 90% inhibition not achieved for doses up to LD50
Method: as §3

Adj/PC6/iproplatin res = experiment: In vivo Adj/PC6 iproplatin-resistant tumour test in mice; parameters: key to ED90: --: indicates 90% inhibition not achieved for doses up to LD50
Method: as §3

OVCAR-3 [1] = experiment: In vivo OVCAR-3 ovarian carcinoma xenograft; parameters: species or system mice; details: tumour volume vs control
OVCAR-3 [2] = experiment: In vivo OVCAR-3 ovarian carcinoma xenograft; parameters: species or system mice; details: delay in doubling of tumour volume vs control
Method: The "growth delay" was also measured which represents the delay in achieving a doubling of the tumour volume for the treated group compared to the control group.

[3] = Adj/PC6, comparison with cis-isomer

| Compound | IC50 (A2780 ®) [µM] | Resistance Factor CHI ®/CHI (CHI ®/CHI) | IC50 (41M ®) [µM] | IC50 (SKOV-3) [µM] | Resistance Factor A2780 ®/A2780 (A2780 ®/A2780) | IC50 (CHI) [µM] | IC50 (41M) [µM] | Resistance Factor 41M ®/41M (41M ®/41M) | IC50 (CHI ®) [µM] | IC50 (A2780) [µM] | IC50 (HX62) [µM] | IC50 (PXN/94) [µM] | ED90 (Adj/PC6; Adj/PC6 testing, mice, ip) [mg/kg body weight] | LD50 (Adj/PC6; Adj/PC6 testing, mice, ip) [mg/kg body weight] | TI (therapeutic index, ratio of LD50 to ED90) (Adj/PC6; Adj/PC6 testing, mice, ip) | further results |
| --- | --- | --- | --- | --- | --- | --- | --- | --- | --- | --- | --- | --- | --- | --- | --- | --- |
| [NH2][Pt]([OH])([OH])([Cl])([Cl])[NH]Cc1ccccc1 [B, t[PtCl2 (OH2)NH3 (PhCH2 NH2)]] | 4.2 | 1.7 | 1.35 | 8.2 | 4.0 | 1.12 | 1.3 | 1.0 | 1.95 | 1.06 | 10.2 |  |  |  |  |  |
| N.N.[Cl][Pt][Cl] [Cisplatin, cis-[PtCl2 (NH3)2], reference compound] |  | 6.4 |  |  | 15.7 |  |  | 4.7 |  |  |  |  |  |  |  | Resistance Factor GCT27 ®/GCT27 (GCT27 ®/GCT27): 6.2 |
| [NH2][Pt]([OH])([OH])([Cl])([Cl])[NH]C1CCCC1 [EX 1, trans-[PtCl2 (OH)2 (NH3)(c-C5 H9 NH2)]] | 5.2 | 1.7 | 1.3 | 7 | 5.5 | 1.15 | 1.1 | 1.2 | 1.9 | 0.95 | 10.2 |  |  |  |  |  |
| CC(C)[NH][Pt]([NH2])([OH])([OH])([Cl])[Cl] [EX 3, trans-[PtCl2 (OH)2 (NH3)((CH3)2 CHNH2)]] |  | 2.3 | 4.6 | 9.2 |  | 2.4 | 3.2 | 1.4 | 5.5 |  | 14 | 8.3 | 10.5 | 18 | 1.7 |  |
| CC(C)(C)[NH][Pt]([NH2])([OH])([OH])([Cl])[Cl] [EX 4, trans-[PtCl2 (OH)2 NH3 (t-C4 H9 NH2)]] |  | 2.2 | 0.9 | 4.7 |  | 0.74 | 1.1 | 0.8 | 1.6 |  | 1.8 | 3 | 4.7 | 35 | 7.4 |  |
| C[NH][Pt]([NH2])([OH])([OH])([Cl])[Cl] [EX 6, trans-[PtCl2 (OH)2 NH3 (MeNH2)]] | 64 | 2.4 | 33 | 72 | 10.3 | 12.5 | 5.4 | 6.1 | 30.5 | 6.2 | 110 |  |  |  |  |  |
| [NH2][Pt]([OH])([OH])([Cl])([Cl])[N]1CCOCC1 [EX 7, trans-[PtCl2 (OH)2 NH3 (morpholine)]] | 47 | 1.6 | 54 | 47 |  | 17.3 | 26 | 2.1 | 28.3 | 10.9 | 100 | 50 | 94 | 82 | < 1 |  |
| CC[N](CC)[Pt]([NH2])([OH])([OH])([Cl])[Cl] [EX 10, t-[PtCl2 (OH)2 NH3 (Et2 NH)]] | 11.6 |  | 0.8 | 12.1 |  | 3.3 | 1.8 |  | 4.6 | 1.9 | 3.2 |  |  |  |  |  |
| C1CN2CCC1CC2.[NH2][Pt]([OH])([OH])([Cl])[Cl] [EX 11, t-[PtCl2 (OH)2 NH3 (quinuclidine)]] | 16 |  | 9.5 | 27 |  | 10.2 | 14.4 |  | 14.3 | 3.2 | 40 |  |  |  |  |  |
| ctc[PtCl2 (OH) NH3(c-C6 H11 NH2)] [Cis-isomer, reference compound] |  |  |  |  |  |  |  |  |  |  |  |  |  |  |  | ED90 (Adj/PC6/tetraplatin res): 12 mg/kg; LD50 (Adj/PC6/tetraplatin res): > 12.5 mg/kg; TI (Therapeutic Index) (Adj/PC6/tetraplatin res): > 1; ED90 (Adj/PC6/cisplatin res): --; LD50 (Adj/PC6/cisplatin res): 8.8 mg/kg; ED90 (Adj/PC6/iproplatin res): --; LD50 (Adj/PC6/iproplatin res): 8.8 mg/kg; T/C (day 28) (OVCAR-3 [1]; 2 mg/kg): 0.636; T/C (day 28) (OVCAR-3 [1]; 4 mg/kg): 0.427; T/C (day 28) (OVCAR-3 [1]; 8 mg/kg): 0.599; Growth Delay (OVCAR-3 [2]; 2 mg/kg): 4.3 days; Growth Delay (OVCAR-3 [2]; 4 mg/kg): 15.2 days; Growth Delay (OVCAR-3 [2]; 8 mg/kg): 5.5 days; ED90 (Adj/PC6; [3]): 1.4 mg/kg; LD50 (Adj/PC6; [3]): 17.5 mg/kg; TI (Therapeutic Index) (Adj/PC6; [3]): 13 |
| t-[PtCl2 (OH)2 NH3 (exo-2-aminonorbornane)] |  | 1.2 | 1.47 | 4.4 |  | 1.4 | 1.4 | 1.0 | 1.7 |  | 5.6 | 3.2 | < 6.25 | 15.5 | > 2.5 |  |
| trans-[PtCl2 (OH)2 NH3 (C10 H21 NH2)] [EX 8] | 14.1 |  | 5.3 | 25 |  | 14 | 12 |  | 14.6 | 2.9 | 23 |  |  |  |  |  |
